# Measured values reported in patent US20210290604A1, “COMPOUNDS FOR TREATMENT OF INFLAMMATORY BOWEL DISEASE AND METHODS THEREOF” (priority 2018, published 2021).
# Tested on: TNBS-induced colitis
# Assay: TNBS-induced colitis in mice, oral dosing once a day Days 1-7
# Type: in vivo, female SJL mice
# Design: Disease Activity Index, Mean / Fecal Consistency, Mean: scale not given here
# Conditions: for Colon Length, Mean / Colon Weight, Mean / Colon Weight/Length ratio, Mean: at euthanasia; for Histopathological severity score, Mean: colon H&E, score 0-4; for overall conclusion as compared to TNBS-vehicle (in words): oral
# Protocol: Healthy young female SJL mice were used for the study. At the commencement of the study, the mice were between 8-9 weeks of age, weighing 20-22 g. All the mice were obtained from The Jackson Laboratory, Bar Harbor, Me. 04609 USA.
# After seven days of acclimatization, mice were grouped according to their body weight. There was one group of ten mice and five groups of fifteen mice each. Five groups of fifteen mice each were challenged intra-rectally with 100 μl of 2.0% TNBS in 50% EtOH and other group of ten mice were challenged intra-rectally with 100 μl of 50% EtOH and serve as No-TNBS control. The experimental groups were as follows:
# The mice were challenged intra-rectally with 100 μl of 2% TNBS in 50% ethanol under light anesthesia with ketamine/xylazine. The test compounds were administrated an hour prior to intra-rectal administration of TNBS as per scheduled daily dosing.
# Vehicle and no-TNBS control groups received 0.5% CMC orally from Day 1 to Day 7.
# Body Weight: The body weights were measured daily for 1-7 days using a laboratory balance.
# Disease Activity Index: The clinical assessment of the mice was performed beginning Day 2 (a day after the intra-rectal administration of TNBS). The clinical assessment includes body weight, stool consistency and the presence of blood in the stools and scored according to Table 2.
# Colon Length and Weight: the mice were euthanized using CO2 asphyxiation and colon from the colocecal junction to the anus was removed, washed and cleaned of all fecal matter using PBS. The colon length and weight were measured and then preserved in 10% NBF for histopathology.
# Histopathology: Formalin fixed colon samples were submitted to affiliated histopathology laboratory for histopathological analysis subjected to hematoxylin and eosin (H & E) staining using standard techniques. Each colon was trimmed from both ends and mid. All three sections were stained and evaluated.
# A board certified veterinarian pathologist assessed the presence of colitis and severity score according to the following criteria: • 0=no sign of inflammation • 1=very low level of inflammation • 2=low level of leukocytic infiltration, low level of inflammation • 3=high level of leukocytic infiltration, high vascular density, inflammation and thickening of colon wall • 4=transmural infiltration, loss of goblet cells, high vascular density, crypt abscesses, thickening of colon wall and ulceration.
# The data is presented as the mean±standard error (SEM) obtained from Microsoft Excel or GraphPad Prism version 5.00 for Windows (GraphPad Software, San Diego Calif. USA). The data was analyzed using two-way ANOVA using Bonferroni post-test. Differences between groups were considered significant at p<0.05.
compound,measurement,setting,value
"C[C@@H]([C@H](O)c1ccc(O)cc1)N1CCC(Cc2ccccc2)CC1 (racemic) [Ifenprodil, 4-[2-(4-benzylpiperidin-1-ium-1-yl)-1-hydroxypropyl] phenol; 2,3,4-trihydroxy-4-oxobutanoate]",Disease Activity Index vs TNBS-vehicle group (in words),30 mg/kg,No significant differences
same,"histopathology, cell morphological changes / severity (in words)",30 mg/kg PO QD (Table 1),statistically significantly reducing cell morphological changes associated with disease
same,body weight change as compared to the TNBS-vehicle group (in words),30 mg/kg po,significant improvement beginning on Day 4
same,"Percent Change in Body Weight, Mean","Day 1, 30 mg/kg PO QD",0.00%
same,Percent Survivability,"Day 1, 30 mg/kg PO QD",100.000%
same,"Disease Activity Index, Mean","Day 2, 30 mg/kg PO QD",1.62
same,"Fecal Consistency, Mean","Day 2, 30 mg/kg PO QD",1.00
same,"Occult Positivity, Mean","Day 2, 30 mg/kg PO QD",1.86
same,"Percent Change in Body Weight, Mean","Day 2, 30 mg/kg PO QD",−9.38%
same,Percent Survivability,"Day 2, 30 mg/kg PO QD",93.000%
same,"Disease Activity Index, Mean","Day 3, 30 mg/kg PO QD",2.04
same,"Fecal Consistency, Mean","Day 3, 30 mg/kg PO QD",1.71
same,"Occult Positivity, Mean","Day 3, 30 mg/kg PO QD",2.14
same,"Percent Change in Body Weight, Mean","Day 3, 30 mg/kg PO QD",−11.31%
same,Percent Survivability,"Day 3, 30 mg/kg PO QD",93.000%
same,"Disease Activity Index, Mean","Day 4, 30 mg/kg PO QD",2.14
same,"Fecal Consistency, Mean","Day 4, 30 mg/kg PO QD",2.00
same,"Occult Positivity, Mean","Day 4, 30 mg/kg PO QD",2.62
same,"Percent Change in Body Weight, Mean","Day 4, 30 mg/kg PO QD",−9.44%
same,Percent Survivability,"Day 4, 30 mg/kg PO QD",86.600%
same,"Disease Activity Index, Mean","Day 5, 30 mg/kg PO QD",1.82
same,"Fecal Consistency, Mean","Day 5, 30 mg/kg PO QD",1.67
same,"Occult Positivity, Mean","Day 5, 30 mg/kg PO QD",2.33
same,"Percent Change in Body Weight, Mean","Day 5, 30 mg/kg PO QD",−7.64%
same,Percent Survivability,"Day 5, 30 mg/kg PO QD",80.000%
same,"Disease Activity Index, Mean","Day 6, 30 mg/kg PO QD",1.56
same,"Fecal Consistency, Mean","Day 6, 30 mg/kg PO QD",1.33
same,"Occult Positivity, Mean","Day 6, 30 mg/kg PO QD",2.00
same,"Percent Change in Body Weight, Mean","Day 6, 30 mg/kg PO QD",−6.68%
same,Percent Survivability,"Day 6, 30 mg/kg PO QD",80.000%
same,"Disease Activity Index, Mean","Day 7, 30 mg/kg PO QD",1.41
same,"Fecal Consistency, Mean","Day 7, 30 mg/kg PO QD",1.17
same,"Occult Positivity, Mean","Day 7, 30 mg/kg PO QD",1.83
same,"Percent Change in Body Weight, Mean","Day 7, 30 mg/kg PO QD",−6.23%
same,Percent Survivability,"Day 7, 30 mg/kg PO QD",80.000%
same,"Colon Length, Mean",30 mg/kg PO QD Days 1-7,8.93 cm
same,"Colon Weight, Mean",30 mg/kg PO QD Days 1-7,0.2145 g
same,"Colon Weight/Length ratio, Mean",30 mg/kg PO QD Days 1-7,24.5065 mg/cm
same,"Histopathological severity score, Mean",30 mg/kg PO QD Days 1-7,1.06
same,overall conclusion as compared to TNBS-vehicle (in words),30 mg/kg,"showed improvement in colitis as well as in the loss of body weight, DAI, colon length, weight and weight/length ratio"
"Nc1ccc(O)c(C(=O)O)c1 [5-ASA, 5-Amino-2-hydroxybenzoic acid]","histopathology, cell morphological changes / severity (in words)",100 mg/kg PO QD (Table 1),statistically significantly reducing cell morphological changes associated with disease
same,body weight change as compared to the TNBS-vehicle group (in words),100 mg/kg po,significant improvement beginning on Day 4
same,"Percent Change in Body Weight, Mean","Day 1, 100 mg/kg PO QD",0.00%
same,Percent Survivability,"Day 1, 100 mg/kg PO QD",100.000%
same,"Fecal Consistency, Mean","Day 2, 100 mg/kg PO QD",1.47
same,"Occult Positivity, Mean","Day 2, 100 mg/kg PO QD",1.33
same,"Percent Change in Body Weight, Mean","Day 2, 100 mg/kg PO QD",−10.01%
same,Percent Survivability,"Day 2, 100 mg/kg PO QD",100.000%
same,"Occult Positivity, Mean","Day 3, 100 mg/kg PO QD",2.00
same,"Percent Change in Body Weight, Mean","Day 3, 100 mg/kg PO QD",−10.45%
same,Percent Survivability,"Day 3, 100 mg/kg PO QD",100.000%
same,"Percent Change in Body Weight, Mean","Day 4, 100 mg/kg PO QD",−9.33%
same,Percent Survivability,"Day 4, 100 mg/kg PO QD",93.000%
same,"Fecal Consistency, Mean","Day 5, 100 mg/kg PO QD",1.38
same,"Occult Positivity, Mean","Day 5, 100 mg/kg PO QD",2.15
same,"Percent Change in Body Weight, Mean","Day 5, 100 mg/kg PO QD",−7.81%
same,Percent Survivability,"Day 5, 100 mg/kg PO QD",86.670%
same,"Fecal Consistency, Mean","Day 6, 100 mg/kg PO QD",0.83
same,"Occult Positivity, Mean","Day 6, 100 mg/kg PO QD",1.67
same,"Percent Change in Body Weight, Mean","Day 6, 100 mg/kg PO QD",−5.87%
same,Percent Survivability,"Day 6, 100 mg/kg PO QD",80.000%
same,occult positivity as compared to TNBS-vehicle (in words),"Day 7, 100 mg/kg",significant improvements
same,"Fecal Consistency, Mean","Day 7, 100 mg/kg PO QD",0.83
same,"Occult Positivity, Mean","Day 7, 100 mg/kg PO QD",1.17
same,"Percent Change in Body Weight, Mean","Day 7, 100 mg/kg PO QD",−6.09%
same,Percent Survivability,"Day 7, 100 mg/kg PO QD",80.000%
same,"Colon Length, Mean",100 mg/kg PO QD Days 1-7,9.08 cm
same,"Colon Weight, Mean",100 mg/kg PO QD Days 1-7,0.2494 g
same,"Histopathological severity score, Mean",100 mg/kg PO QD Days 1-7,1.08
same,overall conclusion as compared to TNBS-vehicle (in words),100 mg/kg,"showed improvement in the colitis, loss of body weight and disease activity index"
"O=C(Nc1ccc2[nH]c(=O)oc2c1)C(=O)N1CCC(Cc2ccc(F)cc2)CC1 [Radiprodil, 2-[4-[(4-fluorophenyl)methyl]piperidin-1-yl]-2-oxo-N-(2-oxo-3H-1,3-benzoxazol-6-yl)acetamide]",Disease Activity Index vs TNBS-vehicle group (in words),30 mg/kg,No significant differences
same,"histopathology, cell morphological changes / severity (in words)",30 mg/kg PO QD (Table 1),reduced severity
same,body weight change as compared to the TNBS-vehicle group (in words),30 mg/kg po,"significant improvement beginning Day 4, with the exception of Day 3"
same,"Percent Change in Body Weight, Mean","Day 1, 30 mg/kg PO QD",0.00%
same,Percent Survivability,"Day 1, 30 mg/kg PO QD",100.000%
same,"Disease Activity Index, Mean","Day 2, 30 mg/kg PO QD",1.84
same,"Fecal Consistency, Mean","Day 2, 30 mg/kg PO QD",1.20
same,"Occult Positivity, Mean","Day 2, 30 mg/kg PO QD",2.00
same,"Percent Change in Body Weight, Mean","Day 2, 30 mg/kg PO QD",−10.51%
same,Percent Survivability,"Day 2, 30 mg/kg PO QD",100.000%
same,"Disease Activity Index, Mean","Day 3, 30 mg/kg PO QD",2.24
same,"Fecal Consistency, Mean","Day 3, 30 mg/kg PO QD",1.33
same,"Occult Positivity, Mean","Day 3, 30 mg/kg PO QD",2.53
same,"Percent Change in Body Weight, Mean","Day 3, 30 mg/kg PO QD",−13.08%
same,Percent Survivability,"Day 3, 30 mg/kg PO QD",100.000%
same,"Disease Activity Index, Mean","Day 4, 30 mg/kg PO QD",2.13
same,"Fecal Consistency, Mean","Day 4, 30 mg/kg PO QD",1.23
same,"Occult Positivity, Mean","Day 4, 30 mg/kg PO QD",2.46
same,"Percent Change in Body Weight, Mean","Day 4, 30 mg/kg PO QD",−10.35%
same,Percent Survivability,"Day 4, 30 mg/kg PO QD",86.670%
same,"Disease Activity Index, Mean","Day 5, 30 mg/kg PO QD",1.78
same,"Fecal Consistency, Mean","Day 5, 30 mg/kg PO QD",1.00
same,"Occult Positivity, Mean","Day 5, 30 mg/kg PO QD",2.33
same,"Percent Change in Body Weight, Mean","Day 5, 30 mg/kg PO QD",−8.29%
same,Percent Survivability,"Day 5, 30 mg/kg PO QD",80.000%
same,"Disease Activity Index, Mean","Day 6, 30 mg/kg PO QD",1.67
same,"Fecal Consistency, Mean","Day 6, 30 mg/kg PO QD",1.00
same,"Occult Positivity, Mean","Day 6, 30 mg/kg PO QD",2.17
same,"Percent Change in Body Weight, Mean","Day 6, 30 mg/kg PO QD",−7.58%
same,Percent Survivability,"Day 6, 30 mg/kg PO QD",80.000%
same,"Disease Activity Index, Mean","Day 7, 30 mg/kg PO QD",1.50
same,"Fecal Consistency, Mean","Day 7, 30 mg/kg PO QD",1.00
same,"Occult Positivity, Mean","Day 7, 30 mg/kg PO QD",1.83
same,"Percent Change in Body Weight, Mean","Day 7, 30 mg/kg PO QD",−6.95%
same,Percent Survivability,"Day 7, 30 mg/kg PO QD",80.000%
same,"Colon Length, Mean",30 mg/kg PO QD Days 1-7,8.42 cm
same,"Colon Weight, Mean",30 mg/kg PO QD Days 1-7,0.3095 g
same,"Colon Weight/Length ratio, Mean",30 mg/kg PO QD Days 1-7,37.7622 mg/cm
same,"Histopathological severity score, Mean",30 mg/kg PO QD Days 1-7,1.61
same,overall conclusion as compared to TNBS-vehicle (in words),30 mg/kg,"showed improvement in colitis as well as in the loss of body weight, DAI, colon length, weight and weight/length ratio"
